Data as given in patent US20120029190A1, “COMPOUNDS FOR TREATING DISORDERS MEDIATED BY METABOTROPIC GLUTAMATE RECEPTOR 5, AND METHODS OF USE THEREOF” (priority 2009, published 2012).

molecular target: T1, human recombinant mGluR5 receptor (Homo sapiens, UniProt P41594); assay: mGluR5 in vitro functional assay (aequorin cell line, inhibition of glutamate EC80 response); assay type: cell-based; conditions: Table 2; aequorin cell line expressing human mGluR5, reference agonist glutamate at EC80; obtained in duplicate; read-out: IC50
T1 construct: expressed in transfected cells; expression induced with doxycycline
Summary of the method: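 Doxycycline-induced (600 ng/mL, 18 h) aequorin cells loaded with coelenterazine h ≥4 h at room temperature; compound preincubated 3 min before glutamate at EC80. Luminescence recorded, normalized to digitonin or 20 mM ATP wells; % inhibition of EC80 response fitted by sigmoidal nonlinear regression.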

T1 sequence (P41594 21-1212): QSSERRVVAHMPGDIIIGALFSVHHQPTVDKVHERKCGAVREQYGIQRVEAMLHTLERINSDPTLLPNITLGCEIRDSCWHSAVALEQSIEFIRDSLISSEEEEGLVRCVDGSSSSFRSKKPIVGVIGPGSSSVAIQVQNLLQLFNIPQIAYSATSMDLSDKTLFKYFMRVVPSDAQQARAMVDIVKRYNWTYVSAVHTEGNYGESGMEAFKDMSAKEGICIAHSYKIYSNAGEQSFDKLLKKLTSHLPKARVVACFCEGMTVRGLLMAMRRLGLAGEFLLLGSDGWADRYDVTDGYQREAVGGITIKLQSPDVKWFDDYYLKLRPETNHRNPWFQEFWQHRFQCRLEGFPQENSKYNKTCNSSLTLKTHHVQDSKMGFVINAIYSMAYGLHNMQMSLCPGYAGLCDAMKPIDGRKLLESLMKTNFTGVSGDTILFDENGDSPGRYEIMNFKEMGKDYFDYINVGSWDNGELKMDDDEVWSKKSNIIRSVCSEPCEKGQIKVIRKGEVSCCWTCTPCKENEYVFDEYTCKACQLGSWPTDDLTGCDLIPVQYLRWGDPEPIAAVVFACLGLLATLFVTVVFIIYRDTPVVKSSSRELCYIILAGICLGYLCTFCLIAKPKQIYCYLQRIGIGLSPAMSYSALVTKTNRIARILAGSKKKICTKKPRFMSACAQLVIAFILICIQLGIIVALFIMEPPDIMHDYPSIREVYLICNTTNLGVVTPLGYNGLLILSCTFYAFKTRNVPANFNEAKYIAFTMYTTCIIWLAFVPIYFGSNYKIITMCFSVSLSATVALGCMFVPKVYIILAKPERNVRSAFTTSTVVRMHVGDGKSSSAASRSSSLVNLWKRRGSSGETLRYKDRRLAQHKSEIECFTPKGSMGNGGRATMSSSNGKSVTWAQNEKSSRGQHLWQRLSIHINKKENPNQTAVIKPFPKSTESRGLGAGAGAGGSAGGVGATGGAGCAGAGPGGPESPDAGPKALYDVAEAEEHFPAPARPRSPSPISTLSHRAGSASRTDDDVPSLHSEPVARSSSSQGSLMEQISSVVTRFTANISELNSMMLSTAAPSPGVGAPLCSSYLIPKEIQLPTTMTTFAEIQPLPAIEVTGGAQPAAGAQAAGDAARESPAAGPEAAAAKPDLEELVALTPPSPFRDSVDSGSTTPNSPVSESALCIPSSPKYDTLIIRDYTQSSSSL

| SMILES | IC50 [nM] |
| --- | --- |
| Fc1cccc(N2CCc3oc(-c4ccccn4)nc3C2)c1 [Compound 116, 5-(3-fluorophenyl)-2-(pyridin-2-yl)-4,5,6,7-tetrahydrooxazolo[4,5-c]pyridine] | < 1000 |
| N#Cc1cc(F)cc(N2CCc3oc(-c4ccncn4)nc3C2)c1 [Compound 118, 3-fluoro-5-(2-(pyrimidin-4-yl)-6,7-dihydrooxazolo[4,5-c]pyridin-5(4H)-yl)benzonitrile] | < 1000 |
| Fc1cccc(N2CCc3oc(-c4ccncn4)nc3C2)c1 [Compound 119, 5-(3-fluorophenyl)-2-(pyrimidin-4-yl)-4,5,6,7-tetrahydrooxazolo[4,5-c]pyridine] | < 10000 |
| Clc1cccc(N2CCc3oc(-c4ccncn4)nc3C2)c1 [Compound 120, 5-(3-chlorophenyl)-2-(pyrimidin-4-yl)-4,5,6,7-tetrahydrooxazolo[4,5-c]pyridine] | < 10000 |
| Cc1cccnc1-c1nc2c(o1)CCN(c1cc(F)cc(C#N)c1)C2 [Compound 121, 3-fluoro-5-(2-(3-methylpyridin-2-yl)-6,7-dihydrooxazolo[4,5-c]pyridin-5(4H)-yl)benzonitrile] | < 10000 |
| Cc1cccnc1-c1nc2c(o1)CCN(c1cccc(F)c1)C2 [Compound 122, 5-(3-fluorophenyl)-2-(3-methylpyridin-2-yl)-4,5,6,7-tetrahydrooxazolo[4,5-c]pyridine] | > 10000 |
| Cc1cccnc1-c1nc2c(o1)CCN(c1cccc(Cl)c1)C2 [Compound 123, 5-(3-chlorophenyl)-2-(3-methylpyridin-2-yl)-4,5,6,7-tetrahydrooxazolo[4,5-c]pyridine] | > 10000 |
| Fc1ccc(-c2nc3c(o2)CCN(c2cccc(F)c2)C3)nc1 [Compound 124, 5-(3-fluorophenyl)-2-(5-fluoropyridin-2-yl)-4,5,6,7-tetrahydrooxazolo[4,5-c]pyridine] | < 1000 |

The next lines start with the values.

| IC50 [nM] | SMILES |
| --- | --- |
| < 1000 | Fc1ccc(-c2nc3c(o2)CCN(c2cccc(Cl)c2)C3)nc1 [Compound 125, 5-(3-chlorophenyl)-2-(5-fluoropyridin-2-yl)-4,5,6,7-tetrahydrooxazolo[4,5-c]pyridine] |
| < 1000 | c1ccc(N2CCc3oc(-c4ccccn4)nc3C2)cc1 [Compound 126, 5-phenyl-2-(pyridin-2-yl)-4,5,6,7-tetrahydrooxazolo[4,5-c]pyridine] |
| < 1000 | COc1cccc(N2CCc3oc(-c4ccccn4)nc3C2)c1 [Compound 127, 5-(3-methoxyphenyl)-2-(pyridin-2-yl)-4,5,6,7-tetrahydrooxazolo[4,5-c]pyridine] |
| < 10000 | c1ccc(-c2nc3c(o2)CCN(c2cncnc2)C3)nc1 [Compound 131, 2-(pyridin-2-yl)-5-(pyrimidin-5-yl)-4,5,6,7-tetrahydrooxazolo[4,5-c]pyridine] |
| < 10000 | c1ccc(-c2nc3c(o2)CCN(c2ncccn2)C3)nc1 [Compound 132, 2-(pyridin-2-yl)-5-(pyrimidin-2-yl)-4,5,6,7-tetrahydrooxazolo[4,5-c]pyridine] |
| < 1000 | Fc1ccc(-c2nc3c(o2)CCCN(c2cccc(F)c2)C3)nc1 [Compound 133, 5-(3-fluorophenyl)-2-(5-fluoropyridin-2-yl)-5,6,7,8-tetrahydro-4H-oxazolo[4,5-c]azepine] |
| < 1000 | Fc1ccc(-c2nc3c(o2)CCCN(c2cccc(Cl)c2)C3)nc1 [Compound 134, 5-(3-chlorophenyl)-2-(5-fluoropyridin-2-yl)-5,6,7,8-tetrahydro-4H-oxazolo[4,5-c]azepine] |
| < 1000 | N#Cc1cc(F)cc(N2CCCc3oc(-c4ccc(F)cn4)nc3C2)c1 [Compound 135, 3-fluoro-5-(2-(5-fluoropyridin-2-yl)-7,8-dihydro-4H-oxazolo[4,5-c]azepin-5(6H)-yl)benzonitrile] |
| < 1000 | Fc1cccc(N2CCCc3oc(-c4ccncn4)nc3C2)c1 [Compound 136, 5-(3-fluorophenyl)-2-(pyrimidin-4-yl)-5,6,7,8-tetrahydro-4H-oxazolo[4,5-c]azepine] |
